pKi: −log10 of the molar value.
Molecular target: T1, recombinant human LTA4 hydrolase (rhLTA4H) (Homo sapiens, UniProt P09960)
T1 construct: made in house; host or cells: Spodoptera frugiperda (Sf-9) cells, baculovirus (pFastBac1)
T1 sequence (P09960 1-611): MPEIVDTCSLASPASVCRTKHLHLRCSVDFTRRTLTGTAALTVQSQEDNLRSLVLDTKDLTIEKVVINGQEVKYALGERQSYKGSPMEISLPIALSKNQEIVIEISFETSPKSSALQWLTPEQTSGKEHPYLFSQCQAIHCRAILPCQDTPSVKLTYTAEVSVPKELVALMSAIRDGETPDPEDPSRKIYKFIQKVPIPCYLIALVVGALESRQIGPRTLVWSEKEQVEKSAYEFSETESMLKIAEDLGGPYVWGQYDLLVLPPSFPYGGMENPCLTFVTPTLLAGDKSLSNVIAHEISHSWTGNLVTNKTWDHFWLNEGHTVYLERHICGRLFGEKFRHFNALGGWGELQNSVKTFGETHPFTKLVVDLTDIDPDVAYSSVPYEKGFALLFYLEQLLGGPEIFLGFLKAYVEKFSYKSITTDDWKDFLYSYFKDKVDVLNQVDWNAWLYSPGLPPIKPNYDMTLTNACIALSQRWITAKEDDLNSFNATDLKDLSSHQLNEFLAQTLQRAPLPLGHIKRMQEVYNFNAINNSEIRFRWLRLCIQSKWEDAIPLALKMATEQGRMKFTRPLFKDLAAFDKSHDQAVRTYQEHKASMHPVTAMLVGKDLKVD
Assay: Recombinant Human LTA4 Hydrolase Assay for LTA4 Hydrolase Inhibitor Activity
Assay type: biochemical
Conditions: average of results obtained; LTB4 quantified by enzyme-linked immunoassay
Procedure: Biological Methods: Recombinant Human LTA4 Hydrolase Assay for LTA4 Hydrolase Inhibitor Activity
Compounds of the present invention were tested for LTA4 hydrolase inhibitor activity against recombinant human LTA4 hydrolase (rhLTA4H). Vectors were prepared and used to express rhLTA4H essentially as follows: LTA4 hydrolase encoding DNA was amplified by polymerase chain reaction (PCR) using a human placental cDNA library as a template. Oligonucleotide primers for the PCR reaction were based on the 5′-end, and the complement of the 3′-end, of the published nucleotide sequence for the coding region of the human LTA4 hydrolase gene (C. D. Funk et al., Proc. Natl. Acad. Sci. USA 1987, 84:6677-6681). The amplified 1.9 kb DNA fragment encoding LTA4 hydrolase was isolated and cloned into the pFastBac1 vector (Invitrogen). Recombinant baculovirus was generated as described by the manufacturer, and used to infect Spodoptera frugiperda (Sf-9) cells. Recombinant LTA4 hydrolase enzyme was purified from the infected Sf-9 cells essentially as described by J. K. Gierse et al. (Protein Expression and Purification 1993, 4:358-366). The purified enzyme solution was adjusted to contain 0.29 mg/mL LTA4 hydrolase, 50 mM Tris (pH 8.0), 150 mM NaCl, 5 mM dithiothreitol, 50% glycerol, and EDTA-free Complete protease inhibitor cocktail (Roche). The specific activity of the enzyme was about 3.8 μmol/min/mg.
LTA4 substrate was prepared from the methyl ester of LTA4 (Cayman Chemical) by treatment with 67 equiv of NaOH under nitrogen at rt for 40 min. The LTA4 substrate in its free acid form was kept frozen at −80° C. until needed. Each compound was diluted to different concentrations in assay buffer (0.1 M potassium phosphate (pH 7.4), 5 mg/mL fatty acid free BSA) containing 10% DMSO. A 25-uL aliquot of each compound dilution was incubated for 10 min at rt with an equal volume of assay buffer containing 36 ng of recombinant human LTA4H. The solution was then adjusted to 200 μL with assay buffer. LTA4 (free acid) was thawed and diluted in assay buffer to a concentration of 357 ng/mL, and 25 μL (9 ng) of LTA4 substrate was added to the reaction mixture (total volume=225 μL) at time zero. Each reaction was carried out at rt for 10 min. The reaction was stopped by diluting 10 μL of the reaction mixture with 200 μL of assay buffer. LTB4 was quantified in the diluted sample by a commercially available enzyme-linked immunoassay (Cayman Chemical Co.), as recommended by the manufacturer. Positive controls, under essentially identical conditions but without addition of an inhibitor compound, and negative controls, containing all assay components except enzyme, were routinely run in each experiment. […]
Results for the compounds tested in this assay are presented in Table 1 as an average of results obtained.

pKi | SMILES
6.76 | CS(=O)(=O)N1C2CCC1CN(Cc1ccc(Oc3nc4ccccc4s3)cc1)C2 [Example 57, meso-2-[4-(8-Methanesulfonyl-3,8-diaza-bicyclo[3.2.1]oct-3-ylmethyl)-phenoxy]-benzothiazole]
7.06 | CC(C)(C)OC(=O)NCC(=O)N1C[C@H]2C[C@@H]1CN2Cc1ccc(Oc2nc3ccccc3s2)cc1 [Example 28, (R,R)-(2-{5-[4-(Benzothiazol-2-yloxy)-benzyl]-2,5-diaza-bicyclo[2.2.1]hept-2-yl}-2-oxo-ethyl)-carbamic acid tert-butyl ester]
6.29 | CC(=O)N[C@@H]1C[C@H]2CC[C@@H](C1)N2CCOc1ccc(Oc2nc3c(Cl)cccc3s2)cc1 [Example 240, meso-exo-N-(8-{2-[4-(4-Chloro-benzothiazol-2-yloxy)-phenoxy]-ethyl}-8-aza-bicyclo[3.2.1]oct-3-yl)-acetamide]
7.70 | CC(=O)N1CC2CCC(C1)N2CCOc1ccc(Oc2nc3cc(F)ccc3s2)cc1 [Example 199, meso-1-(8-{2-[4-(5-Fluoro-benzothiazol-2-yloxy)-phenoxy]-ethyl}-3,8-diaza-bicyclo[3.2.1]oct-3-yl)-ethanone]
7.54 | NC(=O)N1C[C@H]2CCN(Cc3ccc(Oc4nc5ccccc5s4)cc3)[C@H]2C1 [Example 138, (R,R)-1-[4-(Benzothiazol-2-yloxy)-benzyl]-hexahydro-pyrrolo[3,4-b]pyrrole-5-carboxylic acid amide]
6.73 | CS(=O)(=O)N[C@@H]1C[C@H]2CC[C@@H](C1)N2CCc1ccc(Oc2nc3c(Cl)cccc3s2)cc1 [Example 162, meso-exo-N-(8-{2-[4-(4-Chloro-benzothiazol-2-yloxy)-phenyl]-ethyl}-8-aza-bicyclo[3.2.1]oct-3-yl)-methanesulfonamide]
7.89 | O=C(NCc1ccco1)N1CC2CN(Cc3ccc(Oc4nc5ccccc5s4)cc3)CC2C1 (centres unmarked) [Example 131, 5-[4-(Benzothiazol-2-yloxy)-benzyl]-hexahydro-pyrrolo[3,4-c]pyrrole-2-carboxylic acid (furan-2-ylmethyl)-amide]
7.11 | NCC(=O)N1C[C@H]2C[C@@H]1CN2Cc1ccc(Oc2nc3ccccc3s2)cc1 [Example 29, (R,R)-2-Amino-1-{5-[4-(benzothiazol-2-yloxy)-benzyl]-2,5-diaza-bicyclo[2.2.1]hept-2-yl}-ethanone]
5.83 | CS(=O)(=O)N1C[C@H]2C[C@@H]1CN2Cc1ccc(Oc2nc3cc(Cl)ccc3s2)cc1 [Example 181, (R,R)-5-Chloro-2-[4-(5-methanesulfonyl-2,5-diaza-bicyclo[2.2.1]hept-2-ylmethyl)-phenoxy]-benzothiazole]
7.77 | CS(=O)(=O)N[C@@H]1C[C@H]2CC[C@@H](C1)N2CCc1ccc(Oc2nc3ccc(F)cc3s2)cc1 [Example 231, meso-exo-N-(8-{2-[4-(6-Fluoro-benzothiazol-2-yloxy)-phenyl]-ethyl}-8-aza-bicyclo[3.2.1]oct-3-yl)-methanesulfonamide]
7.16 | O=C(c1cnccn1)N1CC2CN(Cc3ccc(Oc4nc5ccccc5s4)cc3)CC2C1 (centres unmarked) [Example 105, {5-[4-(Benzothiazol-2-yloxy)-benzyl]-hexahydro-pyrrolo[3,4-c]pyrrol-2-yl}-pyrazin-2-yl-methanone]
6.89 | NC(=O)N[C@H]1C[C@H]2CC[C@@H](C1)N2CCc1ccc(Oc2nc3ccc(Cl)cc3s2)cc1 [Example 239, meso-endo-(8-{2-[4-(6-Chloro-benzothiazol-2-yloxy)-phenyl]-ethyl}-8-aza-bicyclo[3.2.1]oct-3-yl)-urea]
7.82 | COCC(=O)N1C[C@@H]2C[C@H]1CN2Cc1ccc(Oc2nc3ccccc3s2)cc1 [Example 41, (S,S)-1-{5-[4-(Benzothiazol-2-yloxy)-benzyl]-2,5-diaza-bicyclo[2.2.1]hept-2-yl}-2-methoxy-ethanone]

SMILES | pKi
O=C(CF)N1CC2CN(Cc3ccc(Oc4nc5ccccc5s4)cc3)CC2C1 (centres unmarked) [Example 112, 1-{5-[4-(Benzothiazol-2-yloxy)-benzyl]-hexahydro-pyrrolo[3,4-c]pyrrol-2-yl}-2-fluoro-ethanone] | 8.70

Reference: patent US8344008B2 (Janssen Pharmaceutica NV, priority 2007, dated 2013)
